Results on 10 compounds are retold here after patent publication US20100292472A1, “PROPHYLACTIC AND THERAPEUTIC MEDICINE FOR MALARIA” (priority 2008, published 2010).

Like-named read-outs stand apart in the source and are kept apart here. Some results are limits rather than exact numbers.

Data set [1] deals with T. gondii strain 2F tachyzoites. The experiment in a line: Test for growth inhibitory activity against T. gondii (β-gal colorimetric proliferation assay in Vero cells). It counts as cell-based, Toxoplasma gondii. The conditions noted are these: T. gondii 2F tachyzoites in Vero cells, 2 days. As to the method:
To investigate growth inhibitory activity against T. gondii, the following various compounds were tested: inabenfide (Wako Pure Chemicals, Osaka, Japan), paclobutrazol (Wako Pure Chemicals, Osaka, Japan), uniconazole P (Wako Pure Chemicals, Osaka, Japan) and AMO-1618 (CALBIOCHEM, La Jolla, Calif.) as gibberellin inhibitors; thidiazuron (Wako Pure Chemicals, Osaka, Japan) and 6-benzyl aminopurine (Wako Pure Chemicals, Osaka, Japan) as cytokinins; and α-aminooxy acetic acid (Wako Pure Chemicals, Osaka, Japan) as an ethylene inhibitor.
For this test, T. gondii strain 2F tachyzoites were used. The strain 2F was established by transfection of the T. gondii strain RH with a β-galactosidase gene (β-gal, derived from Escherichia coli) [Reference: J. M. Dobrowolski and L. D. Sibley. Toxoplasma invasion of mammalian cells is powered by the actin cytoskeleton of the parasite. Cell 84, 933-939 (1996)]. The 2F strain was kindly provided by Dr. L. David Sibley (Washington University School of Medicine, St. Louis, Mo., US). As a host cell for the parasites, Vero cells were used. Vero cell cultures were incubated with RPMI 1640 medium containing 10% (v/v) FCS in 96-well plates for 2 days and then infected with 2.5×10^5 tachyzoites/well in RPMI 1640 medium containing 3% (v/v) FCS and various concentrations of the compounds. The tachyzoites were harvested after 2 days and the proliferation rate was monitored as a measure of β-gal activity in a colorimetric assay using chlorophenol red β-D-galactopyranoside. The proliferation rate of compound-untreated tachyzoites is set to 100% and the IC50 means the concentration of the compound that inhibits the proliferation rate by 50%.

For data set [2] the following is noted: Reported Data; cited from earlier work.
The next data set relates to P. falciparum strain 3D7. Nature of the data set: Test for growth inhibitory activity against P. falciparum (infected erythrocytes, Giemsa thin blood film). To be noted: for EC50: read-out: ED50 (50% growth inhibition concentration, EC50). Type of data set: cell-based, Plasmodium falciparum. On the procedure:
To investigate growth inhibitory activity against a laboratory strain 3D7 of P. falciparum, the following various compounds were tested: inabenfide (Wako Pure Chemicals, Osaka, Japan), uniconazole P (Wako Pure Chemicals, Osaka, Japan), paclobutrazol (Wako Pure Chemicals, Osaka, Japan), AMO-1618 (CALBIOCHEM, La Jolla, Calif.) and FC-907 as gibberellin inhibitors; thidiazuron (Wako Pure Chemicals, Osaka, Japan), 6-benzyl aminopurine (Wako Pure Chemicals, Osaka, Japan), trans-zeatin (Wako Pure Chemicals, Osaka, Japan) and cis-zeatin (Sigma) as cytokinins; and α-aminooxy acetic acid (Wako Pure Chemicals, Osaka, Japan) as an ethylene inhibitor.
As a culture medium for the P. falciparum strain 3D7, filter-sterilized RPMI 1640 (pH 7.4) containing 10% (v/v) human serum and human erythrocytes at 3% hematocrit (the ratio of erythrocytes in a suspension thereof) was prepared. Each compound was dissolved at predetermined concentrations in an appropriate solvent (water, ethanol or DMSO) and added to wells. To each well, 3D7-infected erythrocytes were added at a starting parasitemia of 0.1% and the total volume was adjusted to 2.5 ml with the culture medium. The plates were incubated for 3 days. Control cultures were prepared so that instead of each compound solution, the equal volume of the corresponding solvent alone was contained, and similarly incubated. After the incubation, a thin blood film from each culture was prepared and stained with Giemsa (E. Merck, Germany). A total of 3000-erythrocytes/1 thin blood film were examined microscopically (immersed in oil, magnified to 1000 times), after which the malarial infection rate was determined using the equation below. The culture was maintained at 37° C. in a CO2—O2—N2 incubator (5% CO2, 5% O2, and 90% N2 atmosphere). The experiments were performed at least twice and each treatment was performed in triplicate. By comparison of the malarial infection rates obtained in control and compound-treated samples, the efficacy of each compound was assessed.
Malarial infection rate=[(number of infected erythrocytes)/(total number of examined erythrocytes)]×100
For compounds showing growth inhibitory activity, the 50% growth inhibition concentration (EC50) was calculated using the following equation.
X1: concentration of the compound showing <50% inhibition rate (μM) Y1: inhibition rate at the concentration X1 X2: concentration of the compound showing >50% inhibition rate (μM) Y2: inhibition rate at the concentration X2

For data set [3] the following is noted: Mice; Reported Data; cited from earlier work.
The mark [4] stands for this setting: P. falciparum 3D7, 3 days incubation, Table 1.
Where [5] appears, read: Plasmodium falciparum, 3D7, Erythrocyte, 72 h.

The term IC50 denotes the concentration needed to halve the response being measured. For orientation: LD50 means the dose expected to kill half of the subjects tested. Consider `CC(C)(C)[C@H](O)/C(=C\c1ccc(Cl)cc1)n1cncn1` [Uniconazole P, uniconazole P], for which the IC50 in data set [1] (read-out: IC50 Toxoplasma) was found to be 97.4 µM. In data set [2], the Mutagenesis result is listed as “No”. For the same compound, the EC50 in the data set with P. falciparum strain 3D7 (setting [4]) was determined as 25 µM. Moreover, in data set [3], the LD50 is given as 1000 mg/kg.

As for `C/C(=C\CNc1ncnc2nc[nH]c12)CO` [trans-Zeatin, trans-zeatin], the EC50 in the data set with P. falciparum strain 3D7 (setting [4]) was 651 µM. In data set [3], the LD50 is 1300 mg/kg.

In data set [1] (Toxoplasma gondii, 48 h), `NOCC(=O)O` [α-Aminooxy acetic Acid, α-aminooxy acetic acid] registered an IC50 of 96.9 µM. Further, the EC50 in the data set on P. falciparum strain 3D7 (setting [5]) was 20.3 µM.

For `Cc1cc(OC(=O)N2CCCCC2)c(C(C)C)cc1[N+](C)(C)C.[Cl-]` [AMO-1618], the IC50 in data set [1] (read-out: IC50 Toxoplasma) was greater than 1000 µM. Further, the EC50 in the data set with P. falciparum strain 3D7 (setting [4]) came out at 10.3 µM. For the same compound, the “growth inhibition rate (Y1)” value with P. falciparum strain 3D7 (concentration 10 μM (X1), FIG. 1) turned out to be 48.9. The “growth inhibition rate (Y2)” value in the data set on P. falciparum strain 3D7 (concentration 20 μM (X2), FIG. 1) is reported as 85.4. Further, the LD50 in data set [3] is recorded as 0.36 mg/kg.

As to `O=C(Nc1ccc(Cl)cc1C(O)c1ccccc1)c1ccncc1` (stereo not drawn) [Inabenfide, inabenfide], the IC50 in data set [1] (Toxoplasma gondii, 48 h) was found to be 17 µM. Also, the Mutagenesis result in data set [2] is “No”. In addition, the EC50 with P. falciparum strain 3D7 (setting [5]) was determined as 4.47 µM. Besides, in data set [3], the LD50 is greater than 15000 mg/kg.

Turning to `c1ccc(CNc2ncnc3nc[nH]c23)cc1` [6-Benzylaminopurine, 6-benzyl aminopurine], the IC50 in data set [1] (read-out: IC50 Toxoplasma) was greater than 300 µM. Besides, the Mutagenesis entry in data set [2] is “No”. Besides, the EC50 in the data set with P. falciparum strain 3D7 (setting [4]) worked out at 19 µM. Further, the LD50 in data set [3] is listed as 1300 mg/kg.

`O=C(Nc1ccccc1)Nc1cnns1` [Thidiazuron, thidiazuron] gave an IC50 in data set [1] (Toxoplasma gondii, 48 h) of 74.5 µM. For the same compound, the Mutagenesis entry in data set [2] is reported as “No”. The EC50 in the data set on P. falciparum strain 3D7 (setting [5]) worked out at 17.5 µM. The LD50 in data set [3] is greater than 5000 mg/kg.

In the case of `C/C(=C/CNc1ncnc2nc[nH]c12)CO` [cis-Zeatin, cis-zeatin], the EC50 in the data set on P. falciparum strain 3D7 (setting [4]) is 742 µM.

In data set [1] (Toxoplasma gondii, 48 h), `CC(C)(C)[C@@H](O)[C@@H](Cc1ccc(Cl)cc1)n1cncn1` [Paclobutrazol, paclobutrazol] showed an IC50 of 121 µM. The EC50 with P. falciparum strain 3D7 (setting [5]) came out at 27.1 µM. In data set [3], the LD50 is greater than 5000 mg/kg.

Consider `CC1=CCCC(C)(C)C1C=CC(C)[N+](C)(C)C` (stereo not drawn) [FC-907, N,N,N-trimethyl-1-methyl-(2′,6′,6′-trimethylcyclohex-2′-en-1′-yl) prop-2-enylammonium iodide], for which the EC50 with P. falciparum strain 3D7 (setting [4]) was 4.26 µM.
